Legend:
MiaPaCa2 = assay: Mice xenograft model, tumor growth inhibition; type: in vivo; conditions: oral 500 mg/kg, TIWK
Excerpt: (§1) A novel, orally bioavailable nucleoside analogue, RX-3117, is a prodrug activated intracellularly by Uridine Cytidine Kinase 2 (UCK2) that is thought to be expressed predominantly in tumor tissue. RX-3117 is currently being evaluated in a Phase Ib/IIa multi-center, open-label clinical study in patients with advanced pancreatic and bladder cancer. In this study, the relation between UCK2 tissue protein expression and the efficacy of RX-3117 in mice xenograft models and also UCK2 protein expression in a panel of human cancer tissues relative to normal tissue were studied.
(§2) The immunoblotting protein level of UCK2 normalized to beta-actin and corresponding tumor growth inhibition (oral RX-3117 dose of 500 mg/kg, TIWK) were 57 and 67% in MiaPaCa2, 30 and −5% in BxPC3, 199 and 92% in Colo-205, 21 and 90% in Caki-1, 2 and 39% in A549, and 146 and 79% in H460, respectively. […] Average H-Scores of UCK2 in cancer tissues vs. normal tissues were 104 vs. 9 in lung, 97 vs. 20 in bladder, 67 vs. 41 in pancreas and 39 vs. 21 in colon, respectively.

A549 [1] = assay: Mice xenograft model, tumor growth inhibition; type: in vivo; conditions: oral 500 mg/kg, TIWK
Excerpt: as §1, §2

BxPC3 = assay: Mice xenograft model, tumor growth inhibition; type: in vivo; conditions: oral 500 mg/kg, TIWK
Excerpt: as §1, §2

Caki-1 = assay: Mice xenograft model, tumor growth inhibition; type: in vivo; conditions: Caki-1 xenograft, oral 500 mg/kg, TIWK
Excerpt: as §1, §2

H460 = assay: Mice xenograft model, tumor growth inhibition; type: in vivo; conditions: oral 500 mg/kg, TIWK
Excerpt: as §1, §2

Colo-205 = assay: Mice xenograft model, tumor growth inhibition; type: in vivo; conditions: Colo-205 xenograft, oral 500 mg/kg, TIWK
Excerpt: as §1, §2

[2] = Open-label dose-ranging study: pharmacokinetics, safety and tolerability of oral doses; type: in vivo, human; conditions: for AUC(0-t): AUC0-24
Protocol: In an open-label, dose-ranging study, the pharmacokinetics (PK) of RX-3117 at various oral doses was evaluated. Subjects with advanced malignant tumors were administered capsules containing RX-3117 at daily doses of 30 mg (N=1), 60 mg (N=1), 100 mg (N=3), 150 mg (N=3), 200 mg (N=3), 500 mg (N=3), 1000 mg (N=3), 1500 mg (N=4), and 2000 mg (N=5 to date) 3 times a week (TIWK) for 3 weeks with 1 week off during each 4 week cycle. Based on the continued safety profile, and to enhance weekly RX-3117 exposure, more frequent dosing was also implemented. In addition to the TIWK dosing scheme discussed above, subjects also received 500 mg and 700 mg 5 times a week, and 500 mg for 7 times a week for 3 weeks with 1 week off during each 4 week cycle. Dose escalation began with an accelerated design treating 1 subject per dose (Simon et al., J Natl. Cancer Inst., 89(15):1138-47 (1997) followed by a standard 3+3 design using a modified Fibonacci sequence after the occurrence of a single related Grade 2 or greater adverse event. Table 3 summarizes the dosing schedule.
The efficacy, safety and tolerability of RX-3117 at various doses and frequencies were evaluated (see Example 4, above). Subjects with advanced malignant tumors were administered capsules containing RX-3117 at various doses, from TIWK to 7 times per week for 3 weeks with 1 week off during each 4-week cycle. Dose escalation begins with an accelerated design treating 1 subject per dose (Simon et al., J. Natl. Cancer Inst., 89(15):1138-47 (1997) followed by a standard 3+3 design using a modified Fibonacci sequence after the occurrence of a single related Grade 2 or greater adverse event. Table 4 (above) summarizes the dosing schedule.

A549 [3] = conditions: as reported in Peters et al. 2013; cited from earlier work
cytidine deaminase (CDA) = cytidine deaminase (CDA) (Homo sapiens, UniProt P32320); conditions: cited from earlier work
Chain of cytidine deaminase (CDA) (P32320 whole entry, species assumed): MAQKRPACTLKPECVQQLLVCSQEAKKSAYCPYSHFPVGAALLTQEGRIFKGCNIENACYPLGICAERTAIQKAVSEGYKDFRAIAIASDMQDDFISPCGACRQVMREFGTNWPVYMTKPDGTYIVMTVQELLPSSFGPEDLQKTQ

Compound: Nc1ccn([C@@H]2C(F)=C(CO)[C@@H](O)[C@H]2O)c(=O)n1 [RX-3117, 4-amino-1-((1S,4R,5S)-2-fluoro-4,5-dihydroxy-3-hydroxymethyl-cyclopent-2-enyl)-1H-pyrimidin-2-one]
- tumor growth inhibition (MiaPaCa2): 67%
- tumor growth inhibition (A549 [1]): 39%
- tumor growth inhibition (BxPC3): −5%
- tumor growth inhibition (Caki-1): 90%
- tumor growth inhibition (H460): 79%
- tumor growth inhibition (Colo-205): 92%
- maximum tolerated dose (MTD) ([2]; 5 days per week, three weeks with 1 week off per 4-week cycle): 700 mg daily
- maximal tolerated dose ([2]; Phase I clinical study, as stated in Example 7): higher than 2,000 mg/day
- apparent terminal T1/2, mean values ([2]; human, in vivo): 12.3 to 20.2 h
- dose limiting toxicities ([2]; human, in vivo): Grade 3 anemia, thrombocytopenia
- share of AUC0-t (0-24 hours) observed in the first 8 hours ([2]; human, in vivo): about half
- share of AUC observed by 24 hours ([2]; human, in vivo): over 80%
- half-life ([2]; human, in vivo, apparent terminal T1/2, mean values): 11.6 to 16.7 h
- Tmax ([2]; human, in vivo, po, 30 mg, Tmax): 2 h
- AUC0-24 ([2]; human, in vivo, po, 60 mg): 1164 ng·h/mL
- Cmax ([2]; human, in vivo, po, 60 mg): 139 ng/mL
- T1/2 ([2]; human, in vivo, po, 60 mg): 16.2 h
- AUC(0-t) ([2]; human, in vivo, po, 60 mg): 1570 ng·h/mL
- Cmax ([2]; human, in vivo, po, 60 mg, Cmax): 113 ng/mL
- half-life ([2]; human, in vivo, po, 60 mg, T1/2): 15.7 h
- Tmax ([2]; human, in vivo, po, 60 mg, Tmax): 4 h
- AUC0-24 ([2]; human, in vivo, po, 100 mg): 2714 ng·h/mL
- Cmax ([2]; human, in vivo, po, 100 mg): 357 ng/mL
- T1/2 ([2]; human, in vivo, po, 100 mg): 15.4 h
- AUC(0-t) ([2]; human, in vivo, po, 100 mg): 3290 ng·h/mL
- Cmax ([2]; human, in vivo, po, 100 mg, Cmax): 460 ng/mL
- half-life ([2]; human, in vivo, po, 100 mg, T1/2): 20.2 h
- Tmax ([2]; human, in vivo, po, 100 mg, Tmax): 2 h
- AUC0-24 ([2]; human, in vivo, po, 150 mg): 2437 ng·h/mL
- Cmax ([2]; human, in vivo, po, 150 mg): 360 ng/mL
- T1/2 ([2]; human, in vivo, po, 150 mg): 15.1 h
- AUC(0-t) ([2]; human, in vivo, po, 150 mg): 3550 ng·h/mL
- Cmax ([2]; human, in vivo, po, 150 mg, Cmax): 511 ng/mL
- half-life ([2]; human, in vivo, po, 150 mg, T1/2): 13.9 h
- Tmax ([2]; human, in vivo, po, 150 mg, Tmax): 3 h
- AUC0-24 ([2]; human, in vivo, po, 200 mg): 4574 ng·h/mL
- Cmax ([2]; human, in vivo, po, 200 mg): 643 ng/mL
- T1/2 ([2]; human, in vivo, po, 200 mg): 16.2 h
- AUC(0-t) ([2]; human, in vivo, po, 200 mg): 4720 ng·h/mL
- Cmax ([2]; human, in vivo, po, 200 mg, Cmax): 637 ng/mL
- half-life ([2]; human, in vivo, po, 200 mg, T1/2): 13.3 h
- Tmax ([2]; human, in vivo, po, 200 mg, Tmax): 2 h
- Tmax ([2]; human, in vivo, po, 500 mg): 2.5 h
- AUC(0-t) ([2]; human, in vivo, po, 500 mg): 7920 ng·h/mL
- Cmax ([2]; human, in vivo, po, 500 mg, Cmax): 1100 ng/mL
- Tmax ([2]; human, in vivo, po, 500 mg, Tmax): 2 h
- AUC0-24 ([2]; human, in vivo, po, 700 mg): 6321 ng·h/mL
- Cmax ([2]; human, in vivo, po, 700 mg): 674 ng/mL
- T1/2 ([2]; human, in vivo, po, 700 mg): 11.2 h
- AUC(0-t) ([2]; human, in vivo, po, 700 mg): 8660 ng·h/mL
- Cmax ([2]; human, in vivo, po, 700 mg, Cmax): 989 ng/mL
- half-life ([2]; human, in vivo, po, 700 mg, T1/2): 9.05 h
- Tmax ([2]; human, in vivo, po, 700 mg, Tmax): 3 h
- AUC0-24 ([2]; human, in vivo, po, 1000 mg): 9753 ng·h/mL
- Cmax ([2]; human, in vivo, po, 1000 mg): 1210 ng/mL
- T1/2 ([2]; human, in vivo, po, 1000 mg): 14.9 h
- AUC(0-t) ([2]; human, in vivo, po, 1000 mg): 12200 ng·h/mL
- Cmax ([2]; human, in vivo, po, 1000 mg, Cmax): 1640 ng/mL
- half-life ([2]; human, in vivo, po, 1000 mg, T1/2): 11.6 h
- Tmax ([2]; human, in vivo, po, 1000 mg, Tmax): 2 h
- Cmax ([2]; human, in vivo, po, 1500 mg): 883 ng/mL
- T1/2 ([2]; human, in vivo, po, 1500 mg): 13.8 h
- Cmax ([2]; human, in vivo, po, 1500 mg, Cmax): 1620 ng/mL
- half-life ([2]; human, in vivo, po, 1500 mg, T1/2): 11.8 h
- Tmax ([2]; human, in vivo, po, 1500 mg, Tmax): 3 h
- AUC0-24 ([2]; human, in vivo, po, 2000 mg): 17403 ng·h/mL
- Cmax ([2]; human, in vivo, po, 2000 mg): 1703 ng/mL
- T1/2 ([2]; human, in vivo, po, 2000 mg): 12.1 h
- AUC(0-t) ([2]; human, in vivo, po, 2000 mg): 17000 ng·h/mL
- Cmax ([2]; human, in vivo, po, 2000 mg, Cmax): 1860 ng/mL
- half-life ([2]; human, in vivo, po, 2000 mg, T1/2): 13.3 h
- Tmax ([2]; human, in vivo, po, 2000 mg, Tmax): 3 h
- Tmax ([2]; human, in vivo, po, median Tmax): 2 to 3 h
- accumulation ([2]; in vivo): generally minimal
- most frequent related adverse events ([2]; in vivo): moderate to severe anemia, mild to moderate fatigue and nausea, mild diarrhea, vomiting, and anorexia
- most frequently observed adverse events ([2]; in vivo): mild to moderate fatigue and nausea, mild diarrhea, mild vomiting, mild anorexia and moderate dehydration
- IC50 (A549 [3]): 8.3 µM
- substrate for cytidine deaminase (CDA) (cytidine deaminase (CDA); Peters et al. 2013): poor substrate
- rate of deamination (cytidine deaminase (CDA); compared with gemcitabine): much slower than gemcitabine

Source: US10278971B2, “Fluorocyclopentenylcytosine methods of use” (Rexahn Pharmaceuticals, Inc., priority 2015, dated 2019)
